Patent US9056832B2, “Pyridine compounds and the users thereof” (Purdue Pharma L.P., priority 2010, dated 2015)

Target: human Nav1.7 (Homo sapiens (Human), UniProt Q15858)
Test: FLIPR or FLIPR TETRA sodium dye assay with KCl and test article pre-incubation
Type: cell-based
Conditions: read-out: Nav1.7 IC50 (μM) ± SEM

Chain of human Nav1.7 (Q15858 other isoform, or with tags, fused parts or gaps): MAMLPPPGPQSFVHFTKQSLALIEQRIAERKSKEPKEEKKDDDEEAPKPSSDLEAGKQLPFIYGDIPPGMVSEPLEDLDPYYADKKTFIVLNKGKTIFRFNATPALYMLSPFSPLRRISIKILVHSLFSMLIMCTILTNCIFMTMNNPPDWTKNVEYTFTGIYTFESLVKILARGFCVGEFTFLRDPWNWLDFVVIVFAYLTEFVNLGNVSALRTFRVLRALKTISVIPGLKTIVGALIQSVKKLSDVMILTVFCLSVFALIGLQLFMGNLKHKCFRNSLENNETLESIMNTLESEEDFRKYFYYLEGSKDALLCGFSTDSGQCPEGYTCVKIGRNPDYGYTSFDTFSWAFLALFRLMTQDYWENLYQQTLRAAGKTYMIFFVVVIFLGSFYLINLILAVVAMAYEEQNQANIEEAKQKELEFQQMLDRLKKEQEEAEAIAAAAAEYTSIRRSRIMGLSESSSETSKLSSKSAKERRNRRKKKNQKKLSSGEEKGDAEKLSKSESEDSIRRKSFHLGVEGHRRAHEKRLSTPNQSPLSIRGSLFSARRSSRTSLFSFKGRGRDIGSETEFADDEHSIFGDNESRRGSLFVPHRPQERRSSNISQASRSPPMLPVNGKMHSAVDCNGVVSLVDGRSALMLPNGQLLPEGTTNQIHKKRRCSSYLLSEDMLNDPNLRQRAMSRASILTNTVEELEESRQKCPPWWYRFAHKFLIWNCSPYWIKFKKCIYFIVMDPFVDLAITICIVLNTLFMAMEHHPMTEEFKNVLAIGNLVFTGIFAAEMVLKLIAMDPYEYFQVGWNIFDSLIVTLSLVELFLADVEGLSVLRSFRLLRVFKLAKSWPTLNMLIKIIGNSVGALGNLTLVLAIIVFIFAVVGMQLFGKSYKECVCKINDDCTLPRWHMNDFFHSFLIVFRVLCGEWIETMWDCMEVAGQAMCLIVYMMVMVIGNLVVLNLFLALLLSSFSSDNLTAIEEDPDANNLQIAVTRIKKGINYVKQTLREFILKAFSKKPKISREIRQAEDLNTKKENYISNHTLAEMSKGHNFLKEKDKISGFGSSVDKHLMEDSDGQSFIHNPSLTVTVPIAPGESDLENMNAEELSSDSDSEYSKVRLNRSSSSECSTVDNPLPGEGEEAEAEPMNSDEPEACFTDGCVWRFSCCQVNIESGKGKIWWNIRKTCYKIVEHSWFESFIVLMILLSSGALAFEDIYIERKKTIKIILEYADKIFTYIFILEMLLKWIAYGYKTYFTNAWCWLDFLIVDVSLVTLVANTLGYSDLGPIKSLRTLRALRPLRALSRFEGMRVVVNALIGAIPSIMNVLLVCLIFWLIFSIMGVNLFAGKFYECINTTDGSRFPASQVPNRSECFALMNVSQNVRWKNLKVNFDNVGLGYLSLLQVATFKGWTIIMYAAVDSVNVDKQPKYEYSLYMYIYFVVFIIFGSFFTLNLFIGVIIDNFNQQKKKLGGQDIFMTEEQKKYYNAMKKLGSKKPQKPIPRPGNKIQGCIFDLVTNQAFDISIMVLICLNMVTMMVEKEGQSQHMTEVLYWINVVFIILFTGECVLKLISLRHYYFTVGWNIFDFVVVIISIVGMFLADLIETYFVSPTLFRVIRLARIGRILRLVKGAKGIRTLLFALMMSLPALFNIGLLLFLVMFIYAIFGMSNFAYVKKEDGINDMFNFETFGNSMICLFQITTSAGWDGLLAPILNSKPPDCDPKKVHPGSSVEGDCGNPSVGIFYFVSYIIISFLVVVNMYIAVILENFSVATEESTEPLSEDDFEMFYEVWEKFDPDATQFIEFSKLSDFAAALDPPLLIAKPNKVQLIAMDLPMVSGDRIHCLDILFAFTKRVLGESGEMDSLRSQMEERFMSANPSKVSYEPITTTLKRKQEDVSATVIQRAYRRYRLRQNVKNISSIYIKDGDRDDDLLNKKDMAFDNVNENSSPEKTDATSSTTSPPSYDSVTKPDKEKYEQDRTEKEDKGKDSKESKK

| SMILES | IC50 [µM] |
| --- | --- |
| N#CCCN(c1ccccc1)c1cc(C(N)=O)nc(-c2ccc(Oc3ccc(F)cc3)cc2)c1 [compound 44, 4-((2-cyanoethyl)(phenyl)amino)-6-(4-(4-fluorophenoxy)phenyl) picolinamide] | 3.29 ± 1.17 |
| NC(=O)c1cc(NCc2ccncc2)cc(-c2ccc(Oc3ccc(F)cc3)cc2)n1 [compound 46, 6-(4-(4-fluorophenoxy)phenyl)-4-((pyridin-4-ylmethyl)amino) picolinamide] | 0.48 ± 0.07 |
| NC(=O)c1cc(NCC2CCNCC2)cc(-c2ccc(Oc3ccc(F)cc3)cc2)n1 [compound 57, 6-(4-(4-fluorophenoxy)phenyl)-4-((piperidin-4-ylmethyl)amino) picolinamide] | 0.83 ± 0.02 |
| NC(=O)c1cc(NCCN2CCNC2=O)cc(-c2ccc(Oc3ccc(F)cc3)cc2)n1 [compound 58, 6-(4-(4-fluorophenoxy)phenyl)-4-((2-(2-oxoimidazolidin-1-yl)ethyl)amino) picolinamide] | 1.57 ± 0.33 |
| NC(=O)c1cc(N2CCC(C(=O)O)CC2)cc(-c2ccc(Oc3ccc(F)cc3)cc2)n1 [compound 59, 1-(2-carbamoyl-6-(4-(4-fluorophenoxy)phenyl)pyridin-4-yl) piperidine-4-carboxylic acid] | 2.28 ± 0.2 |
| O=C1NCCN1CCNCCc1cccc(-c2ccc(Oc3ccc(F)cc3)cc2)n1 [compound 64, 1-(2-((2-(6-(4-(4-fluorophenoxy)phenyl)pyridin-2-yl)ethyl)amino)ethyl) imidazolidin-2-one] | 0.1 ± 0.3 |
| O=C1NCCN1CCNCc1cccc(-c2ccc(Oc3ncc(C(F)(F)F)cc3Cl)cc2)n1 [compound 66, 1-(2-(((6-(4-((3-chloro-5-(trifluoromethyl)pyridin-2-yl)oxy)phenyl)pyridin-2-yl)methyl)amino)ethyl) imidazolidin-2-one] | 0.13 ± 0.03 |
| N#Cc1cc(Oc2ccc(-c3cccc(CNCCN4CCNC4=O)n3)cc2)ccc1C(F)(F)F [compound 70, 5-(4-(6-(((2-(2-oxoimidazolidin-1-yl)ethyl)amino)methyl)pyridin-2-yl)phenoxy)-2-(trifluoromethyl) benzonitrile] | 0.23 ± 0.08 |
| CS(=O)(=O)c1ccc(Oc2ccc(-c3cccc(CNCCN4CCNC4=O)n3)cc2)cc1 [compound 71, 1-(2-(((6-(4-(4-(methylsulfonyl)phenoxy)phenyl)pyridin-2-yl)methyl)amino)ethyl) imidazolidin-2-one] | 0.35 ± 0.05 |

Same assay, conditions: recombinant human Nav1.7 in HEK293 cells; CoroNa Green sodium dye; veratridine + scorpion venom; read-out: Nav1.7 IC50 (μM) ± SEM

| SMILES | IC50 [µM] |
| --- | --- |
| NC(=O)c1cc([C@H](O)CO)cc(-c2ccc(Oc3cc(Cl)ccc3F)cc2)n1 [compound 39, (S)-6-(4-(5-chloro-2-fluorophenoxy)phenyl)-4-(1,2-dihydroxyethyl) picolinamide] | 0.13 ± 0.03 |
| NC(=O)c1cc([C@H](O)CO)cc(-c2ccc(Oc3ccc(F)cc3)cc2)n1 [compound 41, (S)-4-(1,2-dihydroxyethyl)-6-(4-(4-fluorophenoxy)phenyl)picolinamide] | 0.24 ± 0.04 |
| O=C(NCCN1CCCCC1)c1cc([C@H](O)CO)cc(-c2ccc(Oc3ccc(F)cc3)cc2)n1 [compound 42, (S)-4-(1,2-dihydroxyethyl)-6-(4-(4-fluorophenoxy)phenyl)-N-(2-(piperidin-1-yl)ethyl) picolinamide] | 1.25 ± 0.15 |
| CN(c1ccccc1)c1cc(C(N)=O)nc(-c2ccc(Oc3ccc(F)cc3)cc2)c1 [compound 43, 6-(4-(4-fluorophenoxy)phenyl)-4-(methyl (phenyl)amino) picolinamide] | 0.93 ± 0.17 |
| NC(=O)c1cc(NCc2cccnc2)cc(-c2ccc(Oc3ccc(F)cc3)cc2)n1 [compound 45, 6-(4-(4-fluorophenoxy)phenyl)-4-((pyridin-3-ylmethyl)amino) picolinamide] | 0.15 ± 0.01 |
| NC(=O)c1cc(NCc2ccccn2)cc(-c2ccc(Oc3ccc(F)cc3)cc2)n1 [compound 47, 6-(4-(4-fluorophenoxy)phenyl)-4-((pyridin-2-ylmethyl)amino) picolinamide] | 0.22 ± 0.06 |
| NC(=O)c1cc(NCCN2CCS(=O)(=O)CC2)cc(-c2ccc(Oc3ccc(F)cc3)cc2)n1 [compound 48, 4-((2-(1,1-dioxidothiomorpholino)ethyl)amino)-6-(4-(4-fluorophenoxy)phenyl) picolinamide] | 0.09 ± 0.06 |
| NC(=O)c1cc(NCc2ncccn2)cc(-c2ccc(Oc3ccc(F)cc3)cc2)n1 [compound 49, 6-(4-(4-fluorophenoxy)phenyl)-4-((pyrimidin-2-ylmethyl)amino) picolinamide] | 0.1 ± 0.03 |
| CS(=O)(=O)NCc1cc(C(N)=O)nc(-c2ccc(Oc3ccc(F)cc3)cc2)c1 [compound 50, 6-(4-(4-fluorophenoxy)phenyl)-4-(methylsulfonamido-methyl)picolinamide] | 0.14 ± 0.03 |
| NC(=O)c1cc(CN2CCNCC2)cc(-c2ccc(Oc3ccc(F)cc3)cc2)n1 [compound 51, 6-(4-(4-fluorophenoxy)phenyl)-4-(piperazin-1-ylmethyl)picolinamide] | 0.18 ± 0.3 |
| NC(=O)CN1CCC(CNc2cc(C(N)=O)nc(-c3ccc(Oc4ccc(F)cc4)cc3)c2)CC1 [compound 52, 4-(((1-(2-amino-2-oxoethyl)piperidin-4-yl)methyl)amino)-6-(4-(4-fluorophenoxy)phenyl) picolinamide] | 0.2 ± 0.08 |
| NC(=O)c1cc(NCCN2CCOCC2)cc(-c2ccc(Oc3ccc(F)cc3)cc2)n1 [compound 53, 6-(4-(4-fluorophenoxy)phenyl)-4-((2-morpholinoethyl)amino) picolinamide] | 0.22 ± 0.06 |
| NC(=O)c1cc(NCCCn2ccnc2)cc(-c2ccc(Oc3ccc(F)cc3)cc2)n1 [compound 54, 4-((3-(1H-imidazol-1-yl)propyl)amino)-6-(4-(4-fluorophenoxy)phenyl) picolinamide] | 0.22 ± 0.06 |
| NC(=O)c1cc(N2CCNCC2)cc(-c2ccc(Oc3ccc(F)cc3)cc2)n1 [compound 55, 6-(4-(4-fluorophenoxy)phenyl)-4-(piperazin-1-yl) picolinamide] | 0.23 ± 0.06 |
| NC(=O)c1cc(N2CCC(C(N)=O)CC2)cc(-c2ccc(Oc3ccc(F)cc3)cc2)n1 [compound 56, 4-(4-carbamoylpiperidin-1-yl)-6-(4-(4-fluorophenoxy)phenyl) picolinamide] | 0.31 ± 0.05 |
| NC(=O)c1cc(CNCCN2CCNC2=O)cc(-c2ccc(Oc3ccc(F)cc3)cc2)n1 [compound 60, 6-(4-(4-fluorophenoxy)phenyl)-4-(((2-(2-oxoimidazolidin-1-yl)ethyl)amino)methyl)picolinamide] | 0.16 ± 0.03 |
| O=C1NCCN1CCNCc1cccc(-c2ccc(Oc3ccc(C(F)(F)F)cc3)cc2)n1 [compound 61, 1-(2-(((6-(4-(4-(trifluoromethyl)phenoxy)phenyl)pyridin-2-yl)methyl)amino)ethyl)imidazolidin-2-one] | 0.03 ± 0.01 |
| O=C1NCCN1CCNCc1cccc(-c2ccc(Oc3ccc(F)cc3)cc2)n1 [compound 62, 1-(2-(((6-(4-(4-fluorophenoxy)phenyl)pyridin-2-yl)methyl)amino)ethyl)imidazolidin-2-one] | 0.07 ± 0.02 |
| N#Cc1ccc(Oc2ccc(-c3cccc(CNCCN4CCNC4=O)n3)cc2)c(C(F)(F)F)c1 [compound 65, 4-(4-(6-(((2-(2-oxoimidazolidin-1-yl)ethyl)amino)methyl)pyridin-2-yl)phenoxy)-3-(trifluoromethyl) benzonitrile] | 0.12 ± 0.02 |
| N#Cc1ccc(Oc2ccc(-c3cccc(CNCCN4CCNC4=O)n3)cc2)cc1 [compound 67, 4-(4-(6-(((2-(2-oxoimidazolidin-1-yl)ethyl)amino)methyl)pyridin-2-yl)phenoxy)benzonitrile] | 0.17 ± 0.01 |
| N#CCN(CCN1CCNC1=O)Cc1cccc(-c2ccc(Oc3ccc(F)cc3)cc2)n1 [compound 69, 2-(((6-(4-(4-fluorophenoxy)phenyl)pyridin-2-yl)methyl) (2-(2-oxoimidazolidin-1-yl)ethyl)amino) acetonitrile] | 0.19 ± 0.05 |
| NC(=O)CN(CCN1CCNC1=O)Cc1cccc(-c2ccc(Oc3ccc(F)cc3)cc2)n1 [compound 72, 2-(((6-(4-(4-fluorophenoxy)phenyl)pyridin-2-yl)methyl)(2-(2-oxoimidazolidin-1-yl)ethyl)amino) acetamide] | 0.76 ± 0.03 |
| CC(C)NC(=O)N1CCN(c2cc(C(N)=O)nc(-c3ccc(Oc4ccc(F)cc4)cc3)c2)CC1 [compound 73, 4-(2-carbamoyl-6-(4-(4-fluorophenoxy)phenyl)pyridin-4-yl)-N-isopropylpiperazine-1-carboxamide] | 0.09 ± 0.03 |
| NC(=O)c1cc(N2CCN(c3ncccn3)CC2)cc(-c2ccc(Oc3ccc(F)cc3)cc2)n1 [compound 74, 6-(4-(4-fluorophenoxy)phenyl)-4-(4-(pyrimidin-2-yl)piperazin-1-yl) picolinamide] | 0.09 ± 0.01 |
| NC(=O)c1cc(N2CCN(C(N)=O)CC2)cc(-c2ccc(Oc3ccc(F)cc3)cc2)n1 [compound 76, 4-(2-carbamoyl-6-(4-(4-fluorophenoxy)phenyl)pyridin-4-yl) piperazine-1-carboxamide] | 0.53 ± 0.07 |
| NC(=O)c1cc(N2CCN(C3=NCCCN3)CC2)cc(-c2ccc(Oc3ccc(F)cc3)cc2)n1 [compound 77, 6-(4-(4-fluorophenoxy)phenyl)-4-(4-(1,4,5,6-tetrahydropyrimidin-2-yl)piperazin-1-yl)picolinamide] | 4.27 ± 0.69 |
| O=C(c1cc(N2CCNCC2)cc(-c2ccc(Oc3ccc(F)cc3)cc2)n1)N1CCNCC1 [compound 78, (6-(4-(4-fluorophenoxy)phenyl)-4-(piperazin-1-yl)pyridin-2-yl) (piperazin-1-yl) methanone] | 10 to 20 |
| O=C(NCCN1CCCCC1)c1cc(CO)cc(-c2ccc(Oc3ccc(F)cc3)cc2)n1 [compound 79, 6-(4-(4-fluorophenoxy)phenyl)-4-(hydroxymethyl)-N-(2-(piperidin-1-yl)ethyl)picolinamide] | 0.41 ± 0.03 |
| N=C(N)N1CCN(c2cc(C(N)=O)nc(-c3ccc(Oc4ccc(F)cc4)cc3)c2)CC1 [compound 80, 4-(4-carbamimidoylpiperazin-1-yl)-6-(4-(4-fluorophenoxy)phenyl)picolinamide] | 1.3 ± 0.17 |
| NC(=O)c1cc(C(=O)NCCN2CCCCC2)nc(-c2ccc(Oc3ccc(F)cc3)cc2)c1 [compound 81, 6-(4-(4-fluorophenoxy)phenyl)-N2-(2-(piperidin-1-yl)ethyl)pyridine-2,4-dicarboxamide] | 1.46 ± 0.43 |
